Measurements: paper PMC12036557, “Functional Imaging of CYP3A4 at Multiple Dimensions Using an AI‐Driven High Performance Fluorogenic Substrate” (Small (Weinheim an Der Bergstrasse, Germany), 2025)
Read-outs that look alike come from different tables or passages of the source. Each block holds one molecule with its values, some of them ahead of it.

Legend:
CYP3A4 [1] = molecular target: T1, CYP3A4 (Homo sapiens, UniProt P08684); test: Inhibitory effect of D13 in CHO-3A4 stably transfected cell line; assay type: cell-based; set-up: expressed in transfected cells; host or cells: CHO-3A4 stably transfected cell line; details: CHO-3A4 cells, D13 1 h, NFa 10 μM 30 min; read-out: inhibitory effect (IC50) in living cells
CYP3A4 [2] = test: Liver organ imaging in the presence of CYP3A4 inhibitor (ex vivo); details: mouse, excised whole liver tissue (ex vivo), probe NFa (50 µM); whole mice liver, inhibitor 1 h, NFa 50 µM 30 min; read-out: IC50 (4‐HNFa levels in liver tissue)
CYP3A4 [3] = test: In vivo inhibitory effect against CYP3A4 (pharmacokinetics of NFa with inhibitor); set-up: species or system C57 mice; details: inhibitor 50 mg/kg i.g., NFa 20 mg/kg i.g., mice
hCYP3A4 in HLMs = hCYP3A4 in HLMs (Homo sapiens, UniProt P08684); test: NFa-based screening and characterizing of hCYP3A4 inhibitors in HLMs
CYP3A4 [4] = molecular target: T1, CYP3A4; test: as above; details: human, human liver microsomes, pH 7.4, probe NFa (4-hydroxylation to 4-HNFa)
CYP3A4 [5] = molecular target: T1, CYP3A4; test: NFa-based inhibition assay in recombinant hCYP3A4; assay type: biochemical; set-up: purchased Cypex; details: read-out: IC50 against CYP3A4‐catalyzed NFa 4‐hydroxylation
CYP3A4 [6] = tested on: CYP3A4; set-up: method as in PMID 22971642; details: RTV 50 mg kg^−1, mice; cited from earlier work
NCM460 cells = test: Cell-membrane permeability in NCM460 cells; assay type: cell-based; details: 20 μM, 60 min
FMO1, FMO3, FMO5 = test: Oxidative metabolism of NFa in FMOs; assay type: in vitro ADME; details: NFa 20 μM, NADPH, 30 min
Hep3B cells = test: Cell-membrane permeability in Hep3B cells; assay type: cell-based; details: 20 μM, 60 min
[7] = Optical properties, photostability and pH stability of NFa and 4-HNFa; assay type: physicochemical; set-up: maximum UV absorption: unit not given here
[8] = tested on: panel of human recombinant cytochrome P450 enzymes; test: P450 reaction phenotyping analysis; assay type: biochemical; details: each recombinant CYP 2.5 nM, 37 °C, 30 min
aldehyde oxidase (AO) = molecular target: T2, aldehyde oxidase (AO) (Homo sapiens, UniProt Q06278); test: Oxidative metabolism of NFa in AO (human liver cytosol); assay type: in vitro ADME; details: NFa 20 μM, human liver cytosol without NADPH, 30 min
T2 construct: The oxidative metabolism of NFa in human liver cytosol (HLC) without NADPH; from tissue; host or cells: human liver cytosol
T2 sequence (Q06278 1-1338): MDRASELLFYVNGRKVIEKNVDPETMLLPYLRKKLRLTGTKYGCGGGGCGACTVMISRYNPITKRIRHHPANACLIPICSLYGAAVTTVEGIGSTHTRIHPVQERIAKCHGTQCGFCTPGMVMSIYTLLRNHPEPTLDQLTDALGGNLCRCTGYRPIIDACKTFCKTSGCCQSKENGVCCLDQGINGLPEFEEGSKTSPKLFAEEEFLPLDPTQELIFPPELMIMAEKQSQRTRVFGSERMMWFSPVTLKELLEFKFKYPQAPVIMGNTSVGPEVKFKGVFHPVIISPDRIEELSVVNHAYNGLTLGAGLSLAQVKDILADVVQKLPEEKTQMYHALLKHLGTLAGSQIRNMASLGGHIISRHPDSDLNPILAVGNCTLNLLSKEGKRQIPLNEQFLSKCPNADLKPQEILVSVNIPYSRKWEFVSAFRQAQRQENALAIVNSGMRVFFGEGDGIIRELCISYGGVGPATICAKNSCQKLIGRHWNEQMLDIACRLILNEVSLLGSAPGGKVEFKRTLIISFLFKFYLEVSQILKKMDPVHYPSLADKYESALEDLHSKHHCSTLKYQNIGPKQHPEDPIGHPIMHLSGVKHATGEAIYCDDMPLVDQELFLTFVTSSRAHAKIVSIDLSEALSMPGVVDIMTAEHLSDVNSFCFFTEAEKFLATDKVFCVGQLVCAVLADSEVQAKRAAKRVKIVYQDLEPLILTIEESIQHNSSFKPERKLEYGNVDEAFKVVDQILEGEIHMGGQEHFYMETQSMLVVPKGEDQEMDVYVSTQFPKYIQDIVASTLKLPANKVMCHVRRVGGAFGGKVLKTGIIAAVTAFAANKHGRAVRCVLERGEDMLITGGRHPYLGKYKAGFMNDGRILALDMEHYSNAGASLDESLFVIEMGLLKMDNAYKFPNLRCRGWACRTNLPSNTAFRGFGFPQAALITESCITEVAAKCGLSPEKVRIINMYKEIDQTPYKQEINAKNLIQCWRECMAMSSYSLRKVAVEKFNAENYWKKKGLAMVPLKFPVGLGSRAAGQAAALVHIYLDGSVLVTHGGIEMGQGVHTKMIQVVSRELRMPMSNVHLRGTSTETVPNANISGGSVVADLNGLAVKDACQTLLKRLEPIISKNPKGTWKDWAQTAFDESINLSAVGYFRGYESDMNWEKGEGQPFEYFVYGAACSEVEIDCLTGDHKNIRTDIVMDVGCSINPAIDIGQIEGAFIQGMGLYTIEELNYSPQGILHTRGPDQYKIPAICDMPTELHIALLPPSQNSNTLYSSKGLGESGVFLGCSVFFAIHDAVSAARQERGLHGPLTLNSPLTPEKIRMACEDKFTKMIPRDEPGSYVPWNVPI

[9] = Pharmacokinetics and oral bioavailability of NFa; assay type: in vivo; details: mice
P-gp = molecular target: T3, P-gp (Homo sapiens, UniProt P08183); test: Identification of the P-gp substrates in living cells (MDR1-MDCK); assay type: cell-based; details: with/without verapamil
T3 construct: expressed in transfected cells; host or cells: MDR1-MDCK

[10] = tested on: MCF‐7, Hep3B, and U87 cells; test: Cytotoxicity assays; assay type: cell-based
CYP3A4 [11] = molecular target: T1, CYP3A4; test: Functional imaging of hCYP3A4 in living cells; assay type: cell-based; details: MCF‐7 and Hep3B cells
[12] = Safety test of NFa in healthy mice; assay type: in vivo, C57BL/6J mice; details: oral 100 mg kg^−1 per day, 14 consecutive days
[13] = In vivo inhibitory effect against CYP3A4 (pharmacokinetics of NFa with inhibitor); set-up: species or system C57 mice; details: C57, mouse, plasma, po, 20 mg/kg, mice plasma; for AUC: read-out: AUC(0‐inf)
CYP3A4 [14] = molecular target: T1, CYP3A4; test: Fluorescence response of NFa toward hCYP3A4; assay type: biochemical; set-up: purchased Cypex
CYP3A4 [15] = molecular target: T1, CYP3A4; test: Enzyme kinetic analyses of NFs 4-hydroxylation by hCYP3A4; assay type: biochemical; set-up: purchased Cypex
CYP3A4 [16] = molecular target: T1, CYP3A4; test: in vitro; details: pH 7.4
CYP3A = test: Functional imaging of CYP3A4 in mouse liver tissue slices; details: pre‐incubated 1 h, inhibitor 20 µM
[17] = mouse, plasma, po, 20 mg/kg, i.g.
[18] = NFa 20 mg/kg i.g. with D13 50 mg/kg i.g.
[19] = NFa 20 mg/kg i.g. with RTV 50 mg/kg i.g.
[20] = NFa 20 mg/kg i.g., control group CMC‐Na

T1 sequence (P08684 whole entry): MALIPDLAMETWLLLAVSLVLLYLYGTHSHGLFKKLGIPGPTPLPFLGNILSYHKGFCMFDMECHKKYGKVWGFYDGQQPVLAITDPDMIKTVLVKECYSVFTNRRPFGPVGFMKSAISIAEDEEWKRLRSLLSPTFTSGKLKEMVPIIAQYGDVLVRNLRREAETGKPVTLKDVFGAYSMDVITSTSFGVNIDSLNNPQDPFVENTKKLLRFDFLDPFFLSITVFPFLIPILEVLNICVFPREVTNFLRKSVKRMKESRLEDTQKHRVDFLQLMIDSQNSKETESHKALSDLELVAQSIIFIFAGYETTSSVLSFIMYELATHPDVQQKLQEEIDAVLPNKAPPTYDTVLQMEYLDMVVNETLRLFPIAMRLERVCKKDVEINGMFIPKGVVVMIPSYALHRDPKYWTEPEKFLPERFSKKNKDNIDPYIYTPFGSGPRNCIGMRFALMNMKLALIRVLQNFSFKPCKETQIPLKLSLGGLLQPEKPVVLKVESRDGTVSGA
Chain of hCYP3A4 in HLMs (P08684 whole entry): as above
T3 sequence (P08183 whole entry): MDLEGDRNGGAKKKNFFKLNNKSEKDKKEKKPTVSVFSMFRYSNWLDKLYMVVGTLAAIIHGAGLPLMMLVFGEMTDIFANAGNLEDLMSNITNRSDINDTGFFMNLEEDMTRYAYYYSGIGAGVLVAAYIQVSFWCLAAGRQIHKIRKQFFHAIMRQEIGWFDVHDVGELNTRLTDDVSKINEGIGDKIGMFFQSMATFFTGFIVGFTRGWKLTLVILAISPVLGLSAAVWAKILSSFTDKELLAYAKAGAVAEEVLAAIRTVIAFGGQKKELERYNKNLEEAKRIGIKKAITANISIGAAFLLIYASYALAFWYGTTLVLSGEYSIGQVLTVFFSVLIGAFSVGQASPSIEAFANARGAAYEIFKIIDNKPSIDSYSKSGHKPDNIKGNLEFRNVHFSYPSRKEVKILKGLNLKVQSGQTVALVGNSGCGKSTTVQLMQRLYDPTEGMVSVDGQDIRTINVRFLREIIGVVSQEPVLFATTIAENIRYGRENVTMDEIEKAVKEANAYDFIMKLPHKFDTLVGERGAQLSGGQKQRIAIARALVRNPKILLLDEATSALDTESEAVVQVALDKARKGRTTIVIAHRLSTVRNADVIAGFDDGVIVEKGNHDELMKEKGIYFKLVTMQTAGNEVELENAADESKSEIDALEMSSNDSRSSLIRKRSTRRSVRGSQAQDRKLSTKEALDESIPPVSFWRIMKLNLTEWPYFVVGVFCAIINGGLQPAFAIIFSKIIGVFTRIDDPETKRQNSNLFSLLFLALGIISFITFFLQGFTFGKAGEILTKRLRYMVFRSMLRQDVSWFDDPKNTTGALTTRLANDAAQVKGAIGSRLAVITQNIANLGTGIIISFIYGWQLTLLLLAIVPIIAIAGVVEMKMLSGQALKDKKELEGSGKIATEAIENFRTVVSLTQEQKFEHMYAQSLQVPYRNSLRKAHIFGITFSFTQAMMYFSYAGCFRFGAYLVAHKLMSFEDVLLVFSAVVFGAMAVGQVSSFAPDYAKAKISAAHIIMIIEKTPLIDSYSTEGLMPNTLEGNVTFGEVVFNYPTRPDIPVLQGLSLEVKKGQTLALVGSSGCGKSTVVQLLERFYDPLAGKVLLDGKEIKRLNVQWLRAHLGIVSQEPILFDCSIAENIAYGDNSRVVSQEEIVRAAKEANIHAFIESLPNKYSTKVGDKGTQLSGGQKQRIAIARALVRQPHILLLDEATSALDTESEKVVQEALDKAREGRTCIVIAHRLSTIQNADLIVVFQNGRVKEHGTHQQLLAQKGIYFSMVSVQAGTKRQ

- IC50 (CYP3A4 [1]): 25.4 nM
- IC50 (CYP3A4 [2]): 270 ± 50 nM
- IC50 (hCYP3A4 in HLMs): 13.6 nM
- Residual activity (hCYP3A4 in HLMs; inhibitor 1 μM, HLMs, NFa as fluorogenic substrate): completely inhibited
- activity at 30 min, 1 µM (CYP3A4 [4]): 4.08%
- IC50 (CYP3A4 [5]): 10.9 nM
Compound: O=C(/C=C/c1ccc2cnccc2c1)c1ccc(N2CCCC2)cc1 [D13, (E)-3-(isoquinolin-6-yl)-1-(4-(pyrrolidin-1-yl)phenyl)prop-2-en-1-one]
- Ratio of AUC(0‐inf) of NFa (inhibitor group / control group) (CYP3A4 [3]): 7.22
- Ratio of C max of NFa (inhibitor group / control group) (CYP3A4 [3]): 2.37
- Ratio of T max of NFa (inhibitor group / control group) (CYP3A4 [3]): 0.56
- Ratio of t 1/2 of NFa (inhibitor group / control group) (CYP3A4 [3]): 2.87

Compound: CC(C)c1nc(CN(C)C(=O)N[C@H](C(=O)N[C@@H](Cc2ccccc2)C[C@H](O)[C@H](Cc2ccccc2)NC(=O)OCc2cncs2)C(C)C)cs1 [RTV, Ritonavir]
- increase of AUCinf of midazolam (oral) when co‐administered with RTV (CYP3A4 [6]): five‐fold

Compound: O=C1c2cccc3cccc(c23)C(=O)N1Cc1cscn1 [NFa, N-(4-Thiazolemethanamino)-naphtahlimide]
- enhancement of cell‐membrane permeability versus NEN (NCM460 cells): 28 fold
- participation of FMOs in the oxidative metabolism (FMO1, FMO3, FMO5): did not participate
- enhancement of cell‐membrane permeability versus NEN (Hep3B cells): 5.6 fold
- Molar extinction coefficient ε [7]: 44300 M⁻¹ cm⁻¹
- maximum UV absorption [7]: 340
- maximum fluorogenic emission [7]: 390 nm
- isoform specificity as P450 substrate [8]: highly specific substrates for hCYP3A4
- participation of AO in the oxidative metabolism (aldehyde oxidase (AO)): did not participate
- Oral bioavailability ([9]; 20 mg/kg i.g. vs 2 mg/kg i.v.): 15.27%
- AUC(0-inf) ([9]; mouse, plasma, iv, 2 mg/kg): 439 ± 40.7 ng·h/mL
- Cmax ([9]; mouse, plasma, iv, 2 mg/kg): 913 ± 116 ng/mL
- Tmax ([9]; mouse, plasma, iv, 2 mg/kg): 0.083 h
- half-life ([9]; mouse, plasma, iv, 2 mg/kg): 1.24 ± 0.39 h
- bioavailability ([9]; mouse, plasma, oral, 20 mg/kg, 20 mg/kg i.g. vs 2 mg/kg i.v.): 15.3%
- AUC(0-inf) [9, 17]: 670 ± 232 ng·h/mL
- Cmax [9, 17]: 250 ± 90 ng/mL
- Tmax [9, 17]: 1.17 ± 0.41 h
- half-life [9, 17]: 1.55 ± 0.61 h
- P‐gp substrate status (P-gp): non‐substrate for P‐gp
- cytotoxicity [10]: weak cytotoxicity
- Pearson's coefficient of co‐localization with ER‐Tracker Red (CYP3A4 [11]): 0.99
- biochemical assays and H&E staining findings [12]: no haematotoxicity, organ injuries, or apparent abnormalities
- body weight [12]: gradual increase
- mortality [12]: no mortality
- Cmax [13, 18]: 498 ± 209 ng/mL
- Tmax [13, 18]: 0.7 ± 0.27 h
- half-life [13, 18]: 6.37 ± 4.65 h
- AUC [13, 18]: 4630 ± 2230 ng·h/mL
- Cmax [13, 19]: 494 ± 131 ng/mL
- Tmax [13, 19]: 0.95 ± 0.67 h
- half-life [13, 19]: 8.09 ± 7.52 h
- AUC [13, 19]: 5800 ± 5000 ng·h/mL
- Cmax [13, 20]: 210 ± 125 ng/mL
- Tmax [13, 20]: 1.25 ± 0.61 h
- half-life [13, 20]: 2.22 ± 0.94 h
- AUC [13, 20]: 642 ± 146 ng·h/mL
- limit of detection for sensing hCYP3A4 (CYP3A4 [14]): 0.047 nM
- interference from endogenous fatty acids, amino acids, and cations on NFa 4‐hydroxylation by hCYP3A4 (CYP3A4 [14]; NFa 10 μM, 37 ℃, 30 min): no interference
- enhancement in fluorescence emission ≈555 nM (CYP3A4 [14]; NFa 10 µM, hCYP3A4 10 nM, 37 °C, 30 min, λex 450): 154 fold
- K m (CYP3A4 [15]): 13.33 ± 1.01 µM

Compound: CC(=O)N1CCN(c2ccc(OCC3COC(Cn4ccnc4)(c4ccc(Cl)cc4Cl)O3)cc2)CC1 (centres unmarked) [KET, ketoconazole, reference compound]
- activity at 30 min, 1 µM (CYP3A4 [16]): 1.91%
- effect on NFa green signals in mouse liver slices (CYP3A): significantly blocked
